Test [1] has as its target T1, murine Nurr1 receptor (Mus musculus, UniProt Q06219).
T1 construct: endogenously expressing the murine Nurr1 receptor; host or cells: Neuro-2A (N2A) mouse neuroblastoma cells stably transfected with 8NBRE-luciferase
Briefly: In vitro activity on N2A cells (NBRE-luciferase reporter). It is filed as cell-based. To be noted: N2A-8NBRE-luciferase cells, products incubated 24 hours. Here is the method:
Evaluation of the in vitro Activity on N2A Cells
The tests consisted in evaluating the in vitro activity of the compounds of the invention on a cell line (N2A) endogenously expressing the murine Nurr1 receptor and stably transfected with the NOT binding response element (NBRE) coupled to the luciferase reporter gene. The EC50 values are between 0.01 and 1000 nM. The tests were performed according to the procedure described hereinbelow.
The cell line Neuro-2A is obtained from a standard commercial source (ATCC). The clone Neuro-2A was obtained from a spontaneous tumor originating from a strain of albino mice A by R. J Klebe et al. This line Neuro-2A is then stably transfected with 8NBRE-luciferase. The N2A-8NBRE cells are cultured to the point of confluence in 75 cm^2 culture flasks containing DMEM supplemented with 10% fetal calf serum, 4.5 g/L of glucose and 0.4 mg/ml of geneticin. After culturing for one week, the cells are recovered with 0.25% trypsin for 30 seconds and then resuspended in DMEM without phenol red, containing 4.5 g/L of glucose and 10% Hyclone defatted serum, and placed in white, transparent-based 96-well plates. The cells are deposited at a rate of 60 000 per well in 75 μL for 24 hours before adding the products. The products are applied in 25 μL and incubated for a further 24 hours. On the day of measurement, an equivalent volume (100 μL) of Steadylite is added to each well, and the wells are then left for 30 minutes to obtain complete lysis of the cells and maximum production of the signal. The plates are then measured in a microplate luminescence counter, after having been sealed with an adhesive film. The products are prepared in the form of a 10^−2 M stock solution, and then diluted in 100% of DMSO. Each concentration of product is prediluted in culture medium before incubation with the cells thus containing 0.625% final of DMSO.
On the technique in general: In a reporter assay the amount or activity of a reporter protein is the signal.

Test [2] relates to human NOT receptor. Briefly: Binding to the human NOT receptor by SPR (surface plasmon resonance, Biacore S51). To be noted: immobilized GST-NOT (NOT-FL) and His-Thr-NOT 329-598, 3.75 to 0.1 μM, 4° C. Here is the method: Evaluation of the Binding to the Human NOT Receptor The direct binding between compounds of the invention and the human NOT receptor was evaluated using the SPR (surface plasmon resonance) technique. In this test, the protein is immobilized covalently on the matrix and the test molecule is injected into the chamber containing the sensor chip. The signal is directly proportional to the amount of product bound to the protein. The binding tests were performed in a Biacore S51 machine (Biacore Inc., Piscataway N.J.). The entire GST-NOT protein (NOT-FL) was supplied by Invitrogen (PV3265). The domain for binding to the NOT ligand (His-Thr-NOT 329-598) was expressed and purified as described in Nature 423, 555-560. The two proteins, diluted to a concentration of 20 μg/ml in pH 5.0 acetate buffer containing 5 mM of DTT, were immobilized on a surface of carboxymethyl 5′ dextran (CM5 sensor chip, Biacore Inc.) via amine coupling according to the protocol recommended by Biacore, eluting with an HBS-N buffer (10 mM HEPES, 0.15 M NaCl, 3 mM EDTA, pH 7.4). Approximately 10 000-15 000 resonance units (RU) of the proteins are captured on the surface of the sensor chip CM5. […] Each concentration of product is injected at 4° C. for 1 minute at 30 μl/min. The dissociation was recorded for 5 minutes without any other surface regeneration procedure. […]
(SPR reads the build-up and loss of mass on a sensor chip optically.)

T1 sequence (Q06219 whole entry): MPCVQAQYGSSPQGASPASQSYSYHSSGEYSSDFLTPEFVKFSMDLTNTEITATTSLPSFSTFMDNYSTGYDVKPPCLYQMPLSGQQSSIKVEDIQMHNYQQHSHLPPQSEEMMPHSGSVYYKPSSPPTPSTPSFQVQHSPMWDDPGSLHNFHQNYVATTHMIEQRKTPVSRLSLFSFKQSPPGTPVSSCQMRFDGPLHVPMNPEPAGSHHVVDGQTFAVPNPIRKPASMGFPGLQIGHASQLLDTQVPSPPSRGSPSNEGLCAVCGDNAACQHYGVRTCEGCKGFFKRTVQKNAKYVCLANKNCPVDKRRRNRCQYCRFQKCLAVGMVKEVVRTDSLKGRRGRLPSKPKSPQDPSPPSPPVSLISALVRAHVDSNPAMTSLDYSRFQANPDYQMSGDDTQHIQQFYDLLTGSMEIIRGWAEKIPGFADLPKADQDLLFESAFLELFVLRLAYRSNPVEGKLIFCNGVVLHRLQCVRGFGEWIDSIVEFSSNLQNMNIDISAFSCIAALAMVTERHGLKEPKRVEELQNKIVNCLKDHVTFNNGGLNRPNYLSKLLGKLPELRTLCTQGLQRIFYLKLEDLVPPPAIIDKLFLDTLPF

Regarding `Cc1ccc2nc(C(=O)c3ccccc3)cn2c1.Cl` [Compound 1, (6-Methylimidazo[1,2-a]pyridin-2-yl)(phenyl)methanone hydrochloride (1:1)], in test [1], the midpoint of the response, the EC50, lay at 0.3 nM. Moreover, the “affinity (classified by maximum binding level and kinetic parameters of binding to the immobilized protein)” value in test [2] was “moderate affinity”.

For the molecule `Br.CC(C)(O)c1ccc2nc(C(=O)c3ccccc3)cn2c1` [Compound 3, [6-(1-Hydroxy-1-methylethyl)imidazo[1,2-a]pyridin-2-yl] (phenyl)-methanone hydrobromide (1:1)], the EC50 (commonly the concentration that produces a half-maximal response) in test [1] worked out at 0.2 nM. The “affinity (classified by maximum binding level and kinetic parameters of binding to the immobilized protein)” value in test [2] is reported as “moderate affinity”.

As for `O=C(c1ccccc1)c1cn2cc(-c3ccccc3)ccc2n1` [Compound 6, Phenyl(6-phenylimidazo[1,2-a]pyridin-2-yl)methanone], it took 0.02 nM to reach a half-maximal effect in test [1] (EC50).
